Source: patent US9579313B2, “Hepatitis B antiviral agents” (Novira Therapeutics, Inc., priority 2013, dated 2017)

How the values were obtained:
[1] = biological target: T1, HBV C150Bo capsid protein (HBV CA protein) (Hepatitis B virus genotype D subtype adw, UniProt P03147, C107A/C48A/C61A/R150C); test: HBV assembly assay (fluorescence quenching in vitro capsid assembly); type: biochemical
T1 construct: amino acids 1-150, C49A, C61A, C107A, 150C; made in house; host or cells: E. coli
Excerpt: The fluorescence quenching in vitro assembly HBV assay was developed according to a method described by Zlotnick and coworkers (Nature Biotechnology 2006, 24:358). The assay is based on the observation that the C-termini of the HBV core protein cluster together during capsid formation. This assay utilizes a mutant C150 HBV capsid protein where all wild-type cysteines are mutated to alanines, but a C-terminal cysteine residue is preserved and is labeled with fluorescent BoDIPY-FL dye. […] Thus, the assay measures the ability and potency of test compounds to modulate capsid assembly by monitoring the fluorescence of the labeled capsid C150Bo protein.
In a typical assay, the mutant HBV C150 protein (amino acids 1-150, C49A, C61A, C107A, 150C) is cloned into a T7 RNA-polymerase based expression vector, expressed in E. coli and purified to homogeneity as a dimer. The purified HBV core protein is desalted and labeled with BODIPY-FL Dye.
In a non-limiting embodiment, the assembly assay is conducted in 96-well plate format. The assembly reactions are carried out in 50 mM Hepes buffer, pH 7.5 and 150 mM NaCl. The compounds are pre-incubated with the HBV CA protein for 15 min, and the assembly reactions are initiated by addition of NaCl. The reaction is allowed to continue for 1 hour at room temperature.
To determine the effect on capsid assembly, each test compound is initially screened at 4 different concentrations: 10 μM, 3 μM, 1 μM and 0.3 μM in duplicates. […] Identified primary hits are confirmed in follow-up studies as described elsewhere herein. […] EC50 values for test compounds are determined via analysis of the dose-response curve.
Selected compounds of the invention were assayed in the HBV assembly assay, as described elsewhere herein. The assembly assay was conducted in 96-well plate format. The assembly reactions were carried out in 50 mM Hepes buffer, pH 7.5 and 150 mM NaCl. The compounds were pre-incubated with the HBV CA protein for 15 min, and the assembly reactions were initiated by addition of NaCl. The reaction was allowed to continue for 1 hour at room temperature.
To determine the effect on capsid assembly, each test compound was initially screened at 4 different concentrations: 10 μM, 3 μM, 1 μM and 0.3 μM in duplicates.

[2] = system: HBV replication in HepG2-2.2.15 cells; test: Dot-blot assay of HBV replication (HBV DNA levels); details: Hepatitis B virus, HepG2 2.2.15, 144 h, read-out: Activity in dot-blot-assay (EC50, reduction in HBV DNA levels)
Description: In the first anti-viral assay, the ability of compounds to inhibit HBV replication in an HBV-producing hepatoma cell line using the dot-blot method is evaluated.
Briefly, confluent monolayers of HepG2-2.2.15 cells are incubated with complete medium containing various concentrations of a test compound. Three days later, the culture medium is replaced with fresh medium containing the appropriately diluted test compound. Six days following the initial administration of the test compound, the cell culture supernatant is collected, and cell lysis is performed. The samples are applied onto Nylos membranes and DNA is immobilized to the membrane by UV cross-linking. After pre-hybridization, the HBV probe is added and the hybridization is performed overnight. The membranes are exposed to the Kodak films; antiviral activity is calculated from the reduction in HBV DNA levels (EC50).
In the first anti-viral assay, the ability of compounds to inhibit HBV replication in an HBV-producing hepatoma cell line using the dot-blot method was evaluated.
Confluent monolayers of HepG2-2.2.15 cells were incubated with complete medium containing various concentrations of a test compound. Three days later, the culture medium was replaced with fresh medium containing the appropriately diluted test compound. Six days following the initial administration of the test compound, the cell culture supernatant was collected, and cell lysis was performed. The samples were applied onto Nylos membranes and DNA was immobilized to the membrane by UV cross-linking. After pre-hybridization, the HBV probe was added and the hybridization was performed overnight. The membranes were exposed to the Kodak films; antiviral activity was calculated from the reduction in HBV DNA levels (EC50).

T1 sequence (P03147 1-150 C48A/C61A/C107A/R150C): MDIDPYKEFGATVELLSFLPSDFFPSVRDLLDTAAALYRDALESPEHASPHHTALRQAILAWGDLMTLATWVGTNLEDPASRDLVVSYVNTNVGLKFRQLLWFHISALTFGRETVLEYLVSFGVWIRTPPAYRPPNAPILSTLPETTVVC

| SMILES | EC50 [1] [µM] | EC50 [2] [µM] | EC50 of control compounds in assembly assay ([1]; control compounds) |
| --- | --- | --- | --- |
| O=C(Nc1ccc(F)c(Cl)c1)c1cc(S(=O)(=O)N2CCC(O)CC2)cc2[nH]ccc12 [Compound 949] | < 10 | < 10 | – |
| O=C(Nc1cc(F)c(F)c(F)c1)c1cc(S(=O)(=O)N2CCC(O)CC2)cc2[nH]ccc12 [Compound 1287] | < 10 | – | – |
| O=C(Nc1ccc(F)c(F)c1)c1cc(S(=O)(=O)N2CCC(O)CC2)cc2[nH]ccc12 [Compound 1288] | – | < 10 | – |
| O=C(Nc1ccc(F)c(Cl)c1)c1cc(S(=O)(=O)N2CCC(CO)C(O)C2)cc2[nH]ccc12 (stereo not shown) [Compound 1290] | – | < 10 | – |
| O=C(Nc1cc(F)c(F)c(F)c1)c1cc(S(=O)(=O)N2CCC(CO)C(O)C2)cc2[nH]ccc12 (stereo not shown) [Compound 1291] | < 10 | – | – |
| O=C(Nc1ccc(F)c(F)c1)c1cc(S(=O)(=O)N2CCC(CO)C(O)C2)cc2[nH]ccc12 (stereo not shown) [Compound 1292] | < 10 | – | – |
| O=C(Nc1ccc(F)c(Cl)c1)c1cc(S(=O)(=O)N2CC(O)C(F)C2)cc2[nH]ccc12 (stereo not shown) [Compound 1294] | < 10 | < 10 | – |
| O=C(Nc1ccc(F)c(F)c1)c1cc(S(=O)(=O)N2CC(O)C(F)C2)cc2[nH]ccc12 (stereo not shown) [Compound 1296] | < 10 | – | – |
| O=C(Nc1ccc(F)c(Cl)c1)c1cc(S(=O)(=O)N2CC(O)C2)cc2[nH]ccc12 [Compound 1298] | – | < 10 | – |
| O=C(Nc1cc(F)c(F)c(F)c1)c1cc(S(=O)(=O)N2CC(O)C2)cc2[nH]ccc12 [Compound 1299] | < 10 | – | – |
| O=C(Nc1ccc(F)c(F)c1)c1cc(S(=O)(=O)N2CC(O)C2)cc2[nH]ccc12 [Compound 1300] | < 10 | < 10 | – |
| O=C(Nc1ccc(F)c(Cl)c1)c1cc(S(=O)(=O)N2CCC(O)(CO)CC2)cc2[nH]ccc12 [Compound 1302] | – | < 10 | – |
| O=C(Nc1cc(F)c(F)c(F)c1)c1cc(S(=O)(=O)N2CCC(O)(CO)CC2)cc2[nH]ccc12 [Compound 1303] | < 10 | – | – |
| O=C(Nc1ccc(F)c(F)c1)c1cc(S(=O)(=O)N2CCC(O)(CO)CC2)cc2[nH]ccc12 [Compound 1304] | < 10 | – | – |
| O=C(Nc1ccc(F)c(Cl)c1)c1cc(S(=O)(=O)N2CCC(O)CC2)c2[nH]cnc2c1 [Compound 1472] | – | < 10 | – |
| NC1CCN(S(=O)(=O)c2cc(C(=O)Nc3cc(F)c(F)c(F)c3)c3cc[nH]c3c2)CC1 [Compound 1508] | < 10 | < 10 | – |
| COCC1(O)CCN(S(=O)(=O)c2cc(C(=O)Nc3cc(F)c(F)c(F)c3)c3cc[nH]c3c2)CC1 [Compound 1533] | < 10 | < 10 | – |
| COCC1(O)CCN(S(=O)(=O)c2cc(C(=O)Nc3ccc(F)c(Cl)c3)c3cc[nH]c3c2)CC1 [Compound 1534] | < 10 | – | – |
| COCC1(O)CCN(S(=O)(=O)c2cc(C(=O)Nc3ccc(F)c(F)c3)c3cc[nH]c3c2)CC1 [Compound 1535] | < 10 | < 10 | – |
| COC1(CO)CCN(S(=O)(=O)c2cc(C(=O)Nc3cc(F)c(F)c(F)c3)c3cc[nH]c3c2)CC1 [Compound 1536] | < 10 | – | – |
| COC1(CO)CCN(S(=O)(=O)c2cc(C(=O)Nc3ccc(F)c(Cl)c3)c3cc[nH]c3c2)CC1 [Compound 1537] | – | < 10 | – |
| COC(=O)C1=C(C)NC(c2ccccn2)=NC1c1ccc(F)cc1Cl (stereo not shown) [HAP-1, reference compound] | – | – | consistent with the literature |
